Experiment [1] concerns TTX-sensitive Nav channels in mouse DRG neuron. It is filed as cell-based. The conditions noted are these: for potency relative to JzTx-V (more potent): TTX-sensitive current.
The target in experiment [2] is T1, hNav1.7 (Homo sapiens, UniProt Q15858). The experiment can be described thus: cell-based. The conditions noted are these: IonWorks Quattro; read-out: IC50 Nav1.7. In general terms: The patch-clamp technique gives a direct electrical read-out from membranes.
Experiment [3] concerns the target T2, hNav1.4 (Homo sapiens, UniProt P35499). Put plainly: cell-based. The conditions noted are these: PatchXpress; * = at high concentrations compound would wash off slowly or not at all; read-out: PX hNav1.4 Tonic IC50.
Experiment [4] concerns the target T3, hNav1.5 (Homo sapiens, UniProt Q14524). Put plainly: cell-based. The conditions noted are these: PatchXpress; * = at high concentrations compound would wash off slowly or not at all; read-out: PX hNav1.5 Tonic IC50.
Experiment [5] concerns the target T1, hNav1.7. The experiment can be described thus: cell-based. It is filed as cell-based. The conditions noted are these: for block of hNav1.7 current: 100 pM peptide.
In experiment [6] the target is T3, hNav1.5. The experiment can be described thus: cell-based. The conditions noted are these: IonWorks Quattro; read-out: IC50 Nav1.5.
The target in experiment [7] is T2, hNav1.4. The experiment can be described thus: cell-based. The conditions noted are these: for IC50: IonWorks Quattro, read-out: IC50 Nav1.4; for Nav1.4/Nav1.7: ratio of IonWorks Quattro IC50 values.
The next experiment addresses hNav1.3 (Homo sapiens, UniProt Q9NY46). Put plainly: cell-based. The conditions noted are these: IonWorks Quattro; read-out: IC50 Nav1.3.
Experiment [8] deals with T1, hNav1.7. The experiment can be described thus: cell-based. It is filed as cell-based. The conditions noted are these: PatchXpress; * = at high concentrations compound would wash off slowly or not at all; read-out: PX hNav1.7 Tonic IC50.

Where “and” joins values, the source holds several entries; their conditions need not be identical. Identical values can stand only once. Entries after “also recorded” stand apart in the source; their conditions may differ. Like-named read-outs stand apart in the source and are kept apart here.

One may read the IC50 as the concentration that gives 50% inhibition.

T1 sequence (Q15858 whole entry): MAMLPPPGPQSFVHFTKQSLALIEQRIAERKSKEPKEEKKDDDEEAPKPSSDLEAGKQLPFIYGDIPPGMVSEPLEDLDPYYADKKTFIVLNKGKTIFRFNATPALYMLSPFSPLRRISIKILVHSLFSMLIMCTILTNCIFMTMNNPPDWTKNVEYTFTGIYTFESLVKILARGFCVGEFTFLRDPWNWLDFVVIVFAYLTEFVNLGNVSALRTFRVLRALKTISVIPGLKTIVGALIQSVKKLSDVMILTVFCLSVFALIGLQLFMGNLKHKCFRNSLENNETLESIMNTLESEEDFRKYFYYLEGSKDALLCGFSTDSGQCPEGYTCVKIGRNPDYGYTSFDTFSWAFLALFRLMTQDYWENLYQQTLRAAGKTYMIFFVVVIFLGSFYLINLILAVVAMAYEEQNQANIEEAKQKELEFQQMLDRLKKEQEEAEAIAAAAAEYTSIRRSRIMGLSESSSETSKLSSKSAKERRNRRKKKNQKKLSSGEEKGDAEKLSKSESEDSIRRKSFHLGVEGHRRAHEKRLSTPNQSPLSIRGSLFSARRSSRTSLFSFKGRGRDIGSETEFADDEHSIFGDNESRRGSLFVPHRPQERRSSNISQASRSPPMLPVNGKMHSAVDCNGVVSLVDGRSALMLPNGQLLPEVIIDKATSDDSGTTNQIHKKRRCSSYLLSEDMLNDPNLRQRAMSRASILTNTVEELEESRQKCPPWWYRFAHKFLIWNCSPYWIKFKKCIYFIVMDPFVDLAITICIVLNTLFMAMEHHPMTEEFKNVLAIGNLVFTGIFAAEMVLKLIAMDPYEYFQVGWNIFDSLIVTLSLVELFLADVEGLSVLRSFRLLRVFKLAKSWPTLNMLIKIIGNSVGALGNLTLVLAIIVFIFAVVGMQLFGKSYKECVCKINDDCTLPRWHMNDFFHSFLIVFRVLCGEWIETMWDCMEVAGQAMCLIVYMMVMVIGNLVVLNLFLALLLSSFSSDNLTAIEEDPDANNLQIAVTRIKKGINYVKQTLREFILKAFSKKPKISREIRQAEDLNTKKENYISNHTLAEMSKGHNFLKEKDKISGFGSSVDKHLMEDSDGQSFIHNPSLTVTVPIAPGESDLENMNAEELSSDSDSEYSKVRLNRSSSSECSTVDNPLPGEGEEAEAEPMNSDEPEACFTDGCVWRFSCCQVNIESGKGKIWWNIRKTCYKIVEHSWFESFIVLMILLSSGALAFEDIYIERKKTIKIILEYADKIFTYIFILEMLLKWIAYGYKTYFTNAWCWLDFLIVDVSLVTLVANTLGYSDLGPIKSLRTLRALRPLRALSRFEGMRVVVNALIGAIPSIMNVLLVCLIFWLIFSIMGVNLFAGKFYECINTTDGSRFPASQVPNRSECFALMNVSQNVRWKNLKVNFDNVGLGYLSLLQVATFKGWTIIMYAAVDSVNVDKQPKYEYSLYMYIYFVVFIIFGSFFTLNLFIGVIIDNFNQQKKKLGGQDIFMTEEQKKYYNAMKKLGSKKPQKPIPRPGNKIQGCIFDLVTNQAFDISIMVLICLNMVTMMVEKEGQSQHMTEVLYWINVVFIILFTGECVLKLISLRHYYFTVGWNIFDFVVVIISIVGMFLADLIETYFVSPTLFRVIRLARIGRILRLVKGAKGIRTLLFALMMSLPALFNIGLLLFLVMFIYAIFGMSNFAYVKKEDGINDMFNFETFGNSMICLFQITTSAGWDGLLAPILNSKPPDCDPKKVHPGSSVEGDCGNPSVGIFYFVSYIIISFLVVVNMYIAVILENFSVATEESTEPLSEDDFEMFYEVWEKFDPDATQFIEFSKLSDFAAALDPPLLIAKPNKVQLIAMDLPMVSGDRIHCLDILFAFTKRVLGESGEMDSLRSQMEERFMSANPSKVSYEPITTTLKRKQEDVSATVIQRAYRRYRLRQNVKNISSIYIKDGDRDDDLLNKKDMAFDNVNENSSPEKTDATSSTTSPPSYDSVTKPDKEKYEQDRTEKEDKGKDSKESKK
Chain of hNav1.3 (Q9NY46 whole entry): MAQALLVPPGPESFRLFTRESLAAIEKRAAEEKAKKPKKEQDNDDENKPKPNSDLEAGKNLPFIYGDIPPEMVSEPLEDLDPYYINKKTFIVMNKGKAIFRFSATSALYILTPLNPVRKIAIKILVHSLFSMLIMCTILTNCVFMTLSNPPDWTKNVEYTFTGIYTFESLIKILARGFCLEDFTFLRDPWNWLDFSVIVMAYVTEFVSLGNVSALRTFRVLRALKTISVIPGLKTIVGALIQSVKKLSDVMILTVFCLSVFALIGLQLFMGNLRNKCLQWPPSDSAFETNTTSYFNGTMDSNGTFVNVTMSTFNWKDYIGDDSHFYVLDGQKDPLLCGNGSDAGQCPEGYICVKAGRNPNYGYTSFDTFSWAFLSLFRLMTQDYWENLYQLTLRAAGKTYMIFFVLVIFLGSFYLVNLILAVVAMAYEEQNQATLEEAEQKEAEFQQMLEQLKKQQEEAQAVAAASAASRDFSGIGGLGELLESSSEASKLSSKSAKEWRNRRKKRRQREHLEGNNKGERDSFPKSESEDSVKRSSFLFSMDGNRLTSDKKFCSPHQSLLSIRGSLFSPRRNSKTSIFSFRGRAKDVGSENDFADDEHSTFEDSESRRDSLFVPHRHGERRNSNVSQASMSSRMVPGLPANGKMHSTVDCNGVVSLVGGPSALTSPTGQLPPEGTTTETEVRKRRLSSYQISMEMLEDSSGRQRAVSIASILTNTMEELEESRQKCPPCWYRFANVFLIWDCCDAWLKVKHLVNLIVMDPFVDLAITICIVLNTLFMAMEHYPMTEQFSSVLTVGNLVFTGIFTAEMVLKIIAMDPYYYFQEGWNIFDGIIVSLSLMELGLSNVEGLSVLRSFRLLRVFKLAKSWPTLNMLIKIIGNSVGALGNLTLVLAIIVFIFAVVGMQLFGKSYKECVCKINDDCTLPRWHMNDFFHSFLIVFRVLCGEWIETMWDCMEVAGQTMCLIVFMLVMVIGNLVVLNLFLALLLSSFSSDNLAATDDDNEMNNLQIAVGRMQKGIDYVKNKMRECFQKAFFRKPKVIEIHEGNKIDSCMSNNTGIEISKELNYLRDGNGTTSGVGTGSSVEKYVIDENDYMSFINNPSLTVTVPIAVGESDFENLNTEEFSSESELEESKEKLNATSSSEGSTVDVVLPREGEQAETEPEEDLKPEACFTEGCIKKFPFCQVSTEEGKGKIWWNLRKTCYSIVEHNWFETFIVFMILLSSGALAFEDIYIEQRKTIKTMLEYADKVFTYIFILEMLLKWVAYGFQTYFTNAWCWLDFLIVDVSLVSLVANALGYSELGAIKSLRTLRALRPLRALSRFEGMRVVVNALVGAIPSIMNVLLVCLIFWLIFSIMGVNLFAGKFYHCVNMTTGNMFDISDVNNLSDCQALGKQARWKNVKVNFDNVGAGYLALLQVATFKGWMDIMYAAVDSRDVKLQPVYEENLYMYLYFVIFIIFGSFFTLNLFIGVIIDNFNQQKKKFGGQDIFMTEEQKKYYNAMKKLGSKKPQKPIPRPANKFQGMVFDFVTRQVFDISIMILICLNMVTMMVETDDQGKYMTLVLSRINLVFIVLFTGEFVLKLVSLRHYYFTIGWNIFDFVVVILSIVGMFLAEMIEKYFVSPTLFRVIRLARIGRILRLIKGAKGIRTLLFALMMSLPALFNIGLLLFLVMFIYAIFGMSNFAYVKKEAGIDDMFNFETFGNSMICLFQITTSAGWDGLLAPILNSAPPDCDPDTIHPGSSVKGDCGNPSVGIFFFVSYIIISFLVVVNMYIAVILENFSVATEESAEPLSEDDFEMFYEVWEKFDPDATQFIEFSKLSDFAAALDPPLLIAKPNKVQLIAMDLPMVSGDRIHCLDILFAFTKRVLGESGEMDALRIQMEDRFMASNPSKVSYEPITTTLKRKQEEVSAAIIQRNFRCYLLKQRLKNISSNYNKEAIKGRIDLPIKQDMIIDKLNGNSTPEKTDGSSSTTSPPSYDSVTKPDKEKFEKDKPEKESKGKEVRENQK

With `NC1=N[C@H](O)[C@H]2[C@H]3O[C@]4(O)O[C@@H]([C@@H](O)[C@@]2(N1)[C@@H]4O)[C@]3(O)CO` [TTX, tetrodotoxin, reference compound], the “block of TTX-sensitive Nav current” value in experiment [1] is listed as “completely blocked TTX-sensitive Nav current”.

With `C#CC[C@H](N)C(=O)N[C@@H](Cc1ccc(O)cc1)C(=O)N[C@H]1CSSC[C@@H]2NC(=O)[C@@H]3CSSC[C@@H](C(=O)N[C@@H](CCCNC(=N)N)C(=O)N[C@@H](CCCCN)C(=O)N[C@H](C(=O)N[C@H](C(N)=O)[C@@H](C)CC)[C@@H](C)CC)NC(=O)[C@H](Cc4c[nH]c5ccccc45)NC(=O)[C@H](CC(C)C)NC(=O)[C@H](CCCCN)NC(=O)[C@H](CSSC[C@H](NC(=O)[C@H]([C@@H](C)O)NC(=O)[C@H](Cc4c[nH]c5ccccc45)NC(=O)[C@H](CCCC)NC(=O)[C@H](Cc4c[nH]c5ccccc45)NC(=O)[C@H](CCCCN)NC(=O)[C@H](CCC(N)=O)NC1=O)C(=O)N[C@@H](CC(=O)O)C(=O)N[C@@H](CO)C(=O)N[C@@H](CCCCN)C(=O)N[C@@H](CCCNC(=N)N)C(=O)N[C@@H](C)C(=O)N3)NC(=O)[C@H](CCCNC(=N)N)NC(=O)[C@H](CC(C)C)NC(=O)CNC(=O)[C@H](CCC(=O)O)NC2=O` [compound 425], the half-inhibitory concentration (IC50) is 8 nM and 13 nM on hNav1.7 [2]; 4 nM and 2.5 nM on hNav1.4 [3]; 970 nM and 700 nM on hNav1.5 [4]. Also, the “1.x/1.7, fully non-inactivated” value at hNav1.7 [5] (hNav1.7 vs hNav1.7, fully non-inactivated) was 1. For the same compound, the “1.x/1.7, partially inactivated” value amounted to 1 at hNav1.7 [5] (hNav1.7 vs hNav1.7, partially inactivated) and 6335 in experiment [1] (mTTX-S vs hNav1.7, partially inactivated).

On to `C#CC[C@H](N)C(=O)NCCCC[C@@H]1NC(=O)[C@H](CCCNC(=N)N)NC(=O)[C@H](CCCCN)NC(=O)[C@H](CO)NC(=O)[C@H](CC(=O)O)NC(=O)[C@@H]2CSSC[C@@H]3NC(=O)[C@H](CCCNC(=N)N)NC(=O)[C@H](CC(C)C)NC(=O)CNC(=O)[C@H](CCC(=O)O)NC(=O)[C@H](CSSC[C@H](NC(=O)[C@H](Cc4ccc(O)cc4)NC(=O)[C@@H](N)CC#N)C(=O)N[C@@H](CCC(N)=O)C(=O)N[C@@H](CCCCN)C(=O)N[C@@H](Cc4c[nH]c5ccccc45)C(=O)N[C@@H](CCCC)C(=O)N[C@@H](Cc4c[nH]c5ccccc45)C(=O)N[C@@H]([C@@H](C)O)C(=O)N2)NC(=O)[C@H](CSSC[C@@H](C(=O)N[C@@H](CCCNC(=N)N)C(=O)N[C@@H](CCCCN)C(=O)N[C@@H](CCC(=O)O)C(=O)N[C@H](C(N)=O)[C@@H](C)CC)NC(=O)[C@H](Cc2c[nH]c4ccccc24)NC(=O)[C@H](CC(C)C)NC(=O)[C@H](CCCCN)NC3=O)NC1=O` [SEQ ID NO: 392, CyA-[Nle6,Lys(Pra)14,Glu28]JzTx-V(1-29)], for which the “potency relative to JzTx-V (less potent)” value in experiment [1] is “about 3 fold”. For the same compound, the “block of TTX-sensitive Nav current” value in experiment [1] (300 nM SEQ ID NO:392, held at −88 mV) is “blocked most TTX-sensitive Nav current; also recorded: almost complete inhibition”.

On to `C#CC[C@@H]1NC(=O)[C@@H]2CSSC[C@H](NC(=O)[C@H](Cc3ccc(O)cc3)NC(=O)[C@@H](N)CC#N)C(=O)N[C@@H](CCC(N)=O)C(=O)N[C@@H](CCCCN)C(=O)N[C@@H](Cc3c[nH]c4ccccc34)C(=O)N[C@@H](CCCC)C(=O)N[C@@H](Cc3c[nH]c4ccccc34)C(=O)N[C@@H]([C@@H](C)O)C(=O)N[C@H]3CSSC[C@H](NC(=O)[C@H](CCCNC(=N)N)NC(=O)[C@H](CC(C)C)NC(=O)CNC1=O)C(=O)N[C@@H](CCCCN)C(=O)N[C@@H](CC(C)C)C(=O)N[C@@H](Cc1c[nH]c4ccccc14)C(=O)N[C@H](C(=O)N[C@@H](CCCNC(=N)N)C(=O)N[C@@H](CCCCN)C(=O)N[C@@H](CCC(=O)O)C(=O)N[C@H](C(N)=O)[C@@H](C)CC)CSSC[C@H](NC(=O)[C@H](C)NC(=O)[C@H](CCCNC(=N)N)NC(=O)[C@H](CCCCN)NC(=O)[C@H](CO)NC(=O)[C@H](CC(=O)O)NC3=O)C(=O)N2` [SEQ ID NO: 395, CyA-[Nle6,Pra17,Glu28]JzTx-V(1-29)], for which, in [1] (300 nM SEQ ID NO:395, held at −77 mV), the “block of TTX-sensitive Nav current” value is given as “fully blocked TTX-sensitive Nav current; also recorded: complete inhibition”. Moreover, in [1] (mouse DRG neurons), the “potency relative to JzTx-V (more potent)” value is “equipotent”.

As for `CC[C@H](C)[C@H](NC(=O)[C@@H](NC(=O)[C@H](CCCCN)NC(=O)[C@H](CCCNC(=N)N)NC(=O)[C@@H]1CSSC[C@@H]2NC(=O)[C@H](C)NC(=O)[C@H](CCCNC(=N)N)NC(=O)[C@H](CCCCN)NC(=O)[C@H](CO)NC(=O)[C@H](CC(=O)O)NC(=O)[C@@H]3CSSC[C@H](NC(=O)[C@H](Cc4ccc(O)cc4)NC(=O)[C@H](CC(C)C)NC(=O)CNC(=O)[C@H](CCC(=O)O)NC(=O)[C@H](CSSC[C@H](NC(=O)[C@@H](N)Cc4ccc(O)cc4)C(=O)N[C@@H](CCC(N)=O)C(=O)N[C@@H](CCCCN)C(=O)N[C@@H](Cc4c[nH]c5ccccc45)C(=O)N[C@@H](CCSC)C(=O)N[C@@H](Cc4c[nH]c5ccccc45)C(=O)N[C@@H]([C@@H](C)O)C(=O)N3)NC2=O)C(=O)N[C@@H](CCCCN)C(=O)N[C@@H](CC(C)C)C(=O)N[C@@H](Cc2c[nH]c3ccccc23)C(=O)N1)[C@@H](C)CC)C(N)=O` [compound 124], the IC50 on hNav1.7 [2] is 90 nM; at hNav1.5 [6], 10800 nM; on hNav1.4 [7], 4000 nM; on hNav1.3, > 5000 nM; at hNav1.7 [8], 5.9 nM; on hNav1.4 [3], 1570 nM. The 50% inhibitory concentration (IC50) on hNav1.5 [4] is > 10000 nM. The Nav1.4/Nav1.7 at hNav1.4 [7] is listed as 43.

For the compound `CC[C@H](C)[C@H](NC(=O)[C@H](Cc1ccc(O)cc1)NC(=O)[C@H](CCCCN)NC(=O)[C@H](CCCNC(=N)N)NC(=O)[C@@H]1CSSC[C@@H]2NC(=O)[C@H](C)NC(=O)[C@H](CCCNC(=N)N)NC(=O)[C@H](CCCCN)NC(=O)[C@H](CO)NC(=O)[C@H](CC(=O)O)NC(=O)[C@@H]3CSSC[C@H](NC(=O)[C@H](CCC(=O)O)NC(=O)[C@H](CC(C)C)NC(=O)CNC(=O)[C@H](CCC(=O)O)NC(=O)[C@H](CSSC[C@H](NC(=O)[C@@H](N)Cc4ccc(O)cc4)C(=O)N[C@@H](CCC(N)=O)C(=O)N[C@@H](CCCCN)C(=O)N[C@@H](Cc4c[nH]c5ccccc45)C(=O)N[C@@H](CCSC)C(=O)N[C@@H](Cc4c[nH]c5ccccc45)C(=O)N[C@@H]([C@@H](C)O)C(=O)N3)NC2=O)C(=O)N[C@@H](CCCCN)C(=O)N[C@@H](CC(C)C)C(=O)N[C@@H](Cc2c[nH]c3ccccc23)C(=O)N1)C(N)=O` [compound 137], the half-inhibitory concentration (IC50) on hNav1.7 [2] is 90 nM; at hNav1.5 [6], 8000 nM; at hNav1.4 [7], > 3500 nM; on hNav1.3, 2010 nM; on hNav1.7 [8] it was 0.9 nM; on hNav1.4 [3], 1270 nM. On hNav1.5 [4], the IC50 was 11400 nM. Also, the Nav1.4/Nav1.7 on hNav1.4 [7] came to 41.

Consider `C#CC[C@H](N)C(=O)N[C@@H](Cc1ccc(O)cc1)C(=O)N[C@H]1CSSC[C@@H]2NC(=O)[C@@H]3CSSC[C@@H](C(=O)N[C@@H](CCCNC(=N)N)C(=O)N[C@@H](CCCCN)C(=O)N[C@H](C(=O)N[C@H](C(N)=O)[C@@H](C)CC)[C@@H](C)CC)NC(=O)[C@H](Cc4c[nH]c5ccccc45)NC(=O)[C@H](CC(C)C)NC(=O)[C@H](CCCCN)NC(=O)[C@H](CSSC[C@H](NC(=O)[C@H]([C@@H](C)O)NC(=O)[C@H](Cc4c[nH]c5ccccc45)NC(=O)[C@H](CCCC)NC(=O)[C@H](Cc4c[nH]c5ccccc45)NC(=O)[C@H](CCCCN)NC(=O)[C@H](CCC(N)=O)NC1=O)C(=O)N[C@@H](CC(=O)O)C(=O)N[C@@H](CO)C(=O)N[C@@H](CCCCN)C(=O)N[C@@H](CCCNC(=N)N)C(=O)N[C@@H](C)C(=O)N3)NC(=O)[C@H](CCCNC(=N)N)NC(=O)[C@H](CC(C)C)NC(=O)CNC(=O)[C@H](CCC(=O)O)NC2=O` [SEQ ID NO: 425, Pra-[Nle6]JzTx-V], for which the “block of hNav1.7 current” value at hNav1.7 [5] (held at −77 mV (partially inactivated state)) and at hNav1.7 [5] (held at −140 mV (fully non-inactivated state)) was “fully blocked Nav1.7 current; also recorded: complete inhibition” each time. In addition, the “block of TTX-sensitive Nav current” value in experiment [1] is recorded as “blocked most TTX-sensitive Nav current”. Moreover, in experiment [1] (1 nM peptide (as printed in text), mouse DRG neurons), the “inhibition of TTX-sensitive sodium current” value was “almost complete inhibition”. The “potency relative to JzTx-V (more potent)” value in experiment [1] (mouse DRG neurons) is reported as “about 3 fold”.

As for `CSCC[C@@H]1NC(=O)[C@H](Cc2c[nH]c3ccccc23)NC(=O)[C@H](CCCCN)NC(=O)[C@H](CCC(N)=O)NC(=O)[C@@H](NC(=O)[C@@H](N)Cc2ccc(O)cc2)CSSC[C@@H]2NC(=O)[C@@H]3CSSC[C@@H](C(=O)N[C@@H](CCCNC(=N)N)C(=O)N[C@@H](CCCCN)C(=O)N[C@@H](Cc4ccc(O)cc4)C(=O)N[C@@H](CC(C)C)C(N)=O)NC(=O)[C@H](Cc4c[nH]c5ccccc45)NC(=O)[C@H](CC(C)C)NC(=O)[C@H](CCCCN)NC(=O)[C@H](CSSC[C@H](NC(=O)[C@H]([C@@H](C)O)NC(=O)[C@H](Cc4c[nH]c5ccccc45)NC1=O)C(=O)N[C@@H](CC(=O)O)C(=O)N[C@@H](CO)C(=O)N[C@@H](CCCCN)C(=O)N[C@@H](CCCNC(=N)N)C(=O)N[C@@H](C)C(=O)N3)NC(=O)[C@H](CCC(=O)O)NC(=O)[C@H](CC(C)C)NC(=O)CNC(=O)[C@H](CCC(=O)O)NC2=O` [compound 238], the IC50 at hNav1.7 [2] was 84 nM and 230 nM; on hNav1.5 [6], > 5000 nM; at hNav1.4 [7] it was 4500 nM and > 5000 nM; at hNav1.3, 3000 nM and > 5000 nM; on hNav1.7 [8] it was 2.6 nM; on hNav1.4 [3] it was 626 nM. Also, the concentration for half-maximal inhibition (IC50) on hNav1.5 [4] was 7330 nM.
